Assay results as given in patent US7375078B2, “Heterocyclic self-immolative linkers and conjugates” (Genentech, Inc., priority 2004, dated 2008).

Molecular target: T1, cathepsin B (Homo sapiens, UniProt P07858)
T1 construct: purchased CalBiochem
Assay: Cathepsin B cleavage of 7A and 7B
Format: biochemical
Details: substrate 100 μM, activated cathepsin B 100 nM, 50 mM sodium acetate buffer pH 5, 37° C., 16 hrs, presence or absence of 1 mM cysteine; HPLC
Description: Model compounds with a cleavable peptide unit and a heterocyclic self-immolative moiety, and conjugates of Formula I can be tested for stability and kinetics of enzymatic hydrolysis by the methods of de Groot, et al (1999) J. Med. Chem. 42(25):5277-5283.
FIG. 2 is a schematic representation of the cleavage mechanism.
A cathepsin B (CalBiochem) stock solution at 28.4 μM was diluted to 1 μM in 50 mM sodium acetate buffer pH 7.5, containing 2 mM DTT. Activation was carried out at 37° C. for 15 minutes.
Substrate compounds 7A and 7B were diluted to 100 μM in 50 mM sodium acetate buffer pH 5. Activated cathepsin B was added to a final concentration of 100 nM and the cleavage reaction was carried out at 37° C. for 16 hrs in the presence or absence of 1 mM cysteine.
Reversed-phase separation of cleavage products was carried out using an Agilent 1100 HPLC system. UV signal was monitored at 214, 254 and 380 nm. A Poroshell 300SB-C18 column (No.660750-902) from Agilent was used. Mobile phases A and B contained 0.05% TFA aqueous solution and CH3CN containing 0.05% TFA, respectively. […] The cleavage product of 4-nitroaniline was monitored by its distinct absorbance at 380 nm in the void volume. […]

Structure (SMILES)	cleavage reaction (disappearance of substrate, release of 4-nitroaniline)
CC(C)[C@@H](NC(=O)OC(C)(C)C)C(=O)N[C@H](CCCNC(N)=O)C(=O)Nc1nc(C(F)(F)F)c(COC(=O)Nc2ccc([N+](=O)[O-])cc2)s1 [Compound 7A]	complete
CC(C)[C@@H](NC(=O)CCCCCN1C(=O)C=CC1=O)C(=O)N[C@H](CCCNC(N)=O)C(=O)Nc1nc(C(F)(F)F)c(COC(=O)Nc2ccc([N+](=O)[O-])cc2)s1 [Compound 7B]	complete
